# Test results published in patent US5514664A, “1,4-dihydropyridines for application in combatting resistance to drugs” (BYK Gulden Lomberg Chemische Fabrik GmbH, priority 1990, dated 1996).
# Values joined by “and” are separate entries in the source; they are usually repeats but may differ in a detail not shown here. Equal values may be shown once. Where a name gives a salt, the structure may show the parent alone.
# Experiments:
# MOLT/VCR-5×9 cells = assay: cells; format: cell-based
# From the text: (§1) For this, a selected compound of the formula I, the compound (-)-1,4-dihydro-2,6-dimethyl-4-(3-nitrophenyl)-pyridine-3,5-dicarboxylic acid 3-methyl 5- 3(4,4-diphenyl-1-piperidinyl)-propyl! ester hydrochloride (=compound 1), was investigated in more detail as follows:
# (§2) The tumour cell lines MOLT/VCR-5×9 (starting density: 1.14×10^6 cells/ml), MOLT/DAU-8 (starting density: 1.01×10^6 cells/ml) and CCRF CEMVCR1000+(starting density: 2.00×10^6 cells/ml), which are resistant towards the cytostatics vincristine and daunomycin, were incubated for 72.5 to 73.25 hours in accordance with the following test pattern:
# (§3) 2. Control with the cytostatic relating to the particular cell line (for the concentrations, see below)
# (§4) 4. Compound 1 in concentrations of 10^-6 and 10^-7 M
# (§5) 5. Compound 1 in concentrations of 10^-6 and 10^-7 M, together with the cytostatic relating to the particular cell line (for the concentrations, see below).
# (§6) The cytostatic concentrations used for the individual cell lines were:
# (§7) Vincristine: 5×10^-9 M (for MOLT/VCR-5×9)
# CCRF CEM VCR1000+ cells = assay: cells; format: cell-based
# From the text: as §1, §2, §3, §4, §5
# (§8) The cytostatic concentrations used for the individual cell lines were: […]
# MOLT/DAU-8 cells = assay: cells; format: cell-based
# From the text: as §1, §2, §3, §4, §5, §8
# [1] = system: MOLT/VCR-5×9, MOLT/DAU-8 and CCRF CEM VCR1000+ tumour cell lines
# From the text: as §1, §2, §3, §4, §5, §6, §7
# [2] = 73.25 h, read-out: Growth inhibition in %, compound 1 by itself
# [3] = Homo sapiens, CCRF-CEM/VCR-1000, 73.25 h, read-out: Growth inhibition in %, compound 1 by itself
smiles,measurement,setting,value
"CC[C@]1(O)C[C@H]2CN(CCc3c([nH]c4ccccc34)[C@@](C(=O)OC)(c3cc4c(cc3OC)N(C=O)[C@H]3[C@@](O)(C(=O)OC)[C@H](OC(C)=O)[C@]5(CC)C=CCN6CC[C@]43[C@@H]65)C2)C1 [Vincristine, reference compound]",inhibition at 0.005 µM,"MOLT/VCR-5×9 cells; MOLT/VCR-5 × 9, vincristine 5 × 10^-9 M by itself, 72.5 to 73.25 h, vs DMSO control, read-out: Growth inhibition in %, cytostatic by itself",0%
same,inhibition at 1.08 µM,"CCRF CEM VCR1000+ cells; Homo sapiens, CCRF-CEM/VCR-1000, CCRF CEM VCR1000+, vincristine 1.08 × 10^-6 M by itself, 72.5 to 73.25 h, vs DMSO control, read-out: Growth inhibition in %, cytostatic by itself",0%
"COc1cccc2c1C(=O)c1c(O)c3c(c(O)c1C2=O)C[C@@](O)(C(C)=O)C[C@@H]3O[C@H]1C[C@H](N)[C@H](O)[C@H](C)O1 [Daunomycin, reference compound]",inhibition at 0.01 µM,"MOLT/DAU-8 cells; MOLT/DAU-8, daunomycin 10^-8 M by itself, 72.5 to 73.25 h, vs DMSO control, read-out: Growth inhibition in %, cytostatic by itself",0%
"COC(=O)C1=C(C)NC(C)=C(C(=O)OCCCN2CCC(c3ccccc3)(c3ccccc3)CC2)C1c1cccc([N+](=O)[O-])c1 (single isomer, unassigned; (-)) [Compound 1, (-)-1,4-dihydro-2,6-dimethyl-4-(3-nitrophenyl)-pyridine-3,5-dicarboxylic acid 3-methyl 5-3(4,4-diphenyl-1-piperidinyl)-propyl! ester hydrochloride]","Growth inhibition in %, compound 1 + cytostatic",MOLT/VCR-5×9 cells,99
same,inhibition at 0.1 µM,MOLT/VCR-5×9 cells; [2],66%
same,inhibition at 10 µM,MOLT/VCR-5×9 cells; [2],79%
same,inhibition at 0.1 µM,CCRF CEM VCR1000+ cells; [3],10%
same,inhibition at 10 µM,CCRF CEM VCR1000+ cells; [3],67%
same,"Growth inhibition in %, compound 1 + cytostatic",CCRF CEM VCR1000+ cells; hydrochloride,65 and 90
same,inhibition at 0.1 µM,MOLT/DAU-8 cells; [2],43%
same,inhibition at 10 µM,MOLT/DAU-8 cells; [2],53%
same,"Growth inhibition in %, compound 1 + cytostatic",MOLT/DAU-8 cells; hydrochloride,56 and 96
same,concentration dependence of growth inhibition (in words),[1],This inhibition of growth depends on the concentration
same,inhibition of growth by compound 1 by itself (in words),[1],All resistant cells are inhibited in their growth
same,overcoming of resistance and intensification of cytotoxicity (in words),[1],the resistance towards cytostatics is overcome and the cytotoxicity of the cytostatics is intensified
